In patent US20020173491A1, “DAPD combination therapy with inosine monophosphate dehydrogenase inhibitor” (priority 2000, published 2002):
Like-named read-outs stand apart in the source and are kept apart here.

Legend:
[1] = XTT based cytotoxicity assay, MT2; conditions: human, MT2 T-cell line, MT2 cells
Procedure: The XTT (2,3-bis(2-methoxy-4-nitro-5-sulfoxyphenyl)-5[(phenylamino)carbonyl]-2H-tetrazolium hydroxide) assay is an in vitro colorimetric cyto-protection assay. Reduction of XTT by mitochondria dehydrogenases results in the cleavage of the tetrazolium ring of XTT, yielding orange formazan crystals, which are soluble in aqueous solution. The resultant orange solution was read in a spectrophotometer at a wavelength of 450nm. […] Cells were added to the plat at 3×10^4/well (MTX) and 2×10^5/well (PBMC) and the plates were incubated for 5 days at 37° C. in a 5% CO2 incubator (addition of the cells to the plate diluted the compound to a final high concentration of 1 mM). At the end of the 5-day incubation, XTT was added to each well and incubated at 37° C. for 3 hours followed by the addition of acidified isopropanol. The plate was read at 450 nm in a 96 well plate reader. A dose response curve was generated using the absorption values of cells grown in the absence of compound as 100% protection.
MPA was tested for cytotoxicity on the laboratory adapted T-cell line MT2 and in PBMCs using a XTT based assay. […] The resultant orange solution is read in a spectrophotometer at a wavelength of 450nm. […] The plate was read at 450 nm in a 96 well plate reader. […]

[2] = XTT based cytotoxicity assay, PBMC; format: cell-based; conditions: human, PBMCs
Procedure: The XTT (2,3-bis(2-methoxy-4-nitro-5-sulfoxyphenyl)-5[(phenylamino)carbonyl]-2H-tetrazolium hydroxide) assay is an in vitro colorimetric cyto-protection assay. Reduction of XTT by mitochondria dehydrogenases results in the cleavage of the tetrazolium ring of XTT, yielding orange formazan crystals, which are soluble in aqueous solution. […] Cells were added to the plat at 3×10^4/well (MTX) and 2×10^5/well (PBMC) and the plates were incubated for 5 days at 37° C. in a 5% CO2 incubator (addition of the cells to the plate diluted the compound to a final high concentration of 1 mM). At the end of the 5-day incubation, XTT was added to each well and incubated at 37° C. for 3 hours followed by the addition of acidified isopropanol. The plate was read at 450 nm in a 96 well plate reader. A dose response curve was generated using the absorption values of cells grown in the absence of compound as 100% protection.
The XTT (2,3-bis(2-methoxy-4-nitro-5-sulfophenyl)-5[(phenylamino)carbonyl]-2H-tetrazolium hydroxide) assay is an in vitro colorimetric cyto-protection assay. Reduction of XTT by mitochondria dehydrogenases results in the cleavage of the tetrazolium ring of XTT, yielding orange formazan crystals, which are soluble in aqueous solution. […] The plate was read at 450 nm in a 96 well plate reader. […]

xxLAI strain of HIV-1 [3] = assay: microbe, parasite or virus in culture; format: cell-based; conditions: compound alone, any of the concentrations tested (RBV up to 100 μM, MPA up to 1 μM)
Procedure: Triplicate samples of compound were tested. MT2 cells were infected with xxLAI at a multiplicity of infection (MOI) of 0.03 for 3 hours at 37° C. in 5% CO2. The infected cells were plated at 3.0×10^4/well into a 96 well plated containing drug dilutions and incubated for 5 days at 37° C. in CO2. […] This method has been modified into a susceptibility assay and has been used in a variety of in vitro antiviral tests and is readily adaptable to any system with a lytic virus (Weislow, O. S., et. al. 1989). Using the absorption values of the cell controls as 100% protection and no drug, virus infected cells as 0% protection, a dose response curve is generated by plotting % protection on the Y axis and drug concentration on the X axis. From this curve EC50 values were determined.
Assays were performed in the MT2 cell line as described above in the XXT sensitivity assay section.
MPA was tested for activity against the xxLAI strain of HIV-1 in the laboratory adapted cell line MT2. Dilutions of MPA were made in cell culture media in a 96 well plate; the highest concentration tested was 1 μM. Triplicate samples of compound were tested. MT2 cells were infected with xxLAI at a multiplicity of infection (MOI) of 0.03 for 3 hours at 37° C. in 5% CO2. The infected cells were plated at 3.0×10^4/well into a 96 well plated containing drug dilutions and incubated for 5 days at 37° C. in CO2. The antiviral activity of MPA was determined using the XTT assay described above. This method has been modified into a susceptibility assay and has been used in a variety of in vitro antiviral tests and is readily adaptable to any system with a lytic virus (Weislow, O. S., et. al. 1989). Using the absorption values of the cell controls as 100% protection and no drug, virus infected cells as 0% protection, a dose response curve is generated by plotting % protection on the Y axis and drug concentration on the X axis. From this curve EC50 values were determined.
The concentrations of MPA used were 1, 0.5, 0.25, 0.1, and 0.01 μM. Assays were performed in the MT2 cell line as described in section 3.1.

xxLAI strain of HIV-1 [4] = assay: microbe, parasite or virus in culture; format: cell-based; conditions: Human immunodeficiency virus 1, PBMC, 72 h
Procedure: In this assay, cell supernatants were incubated on microelisa wells coated with antibodies to HIV-1 p24 core antigen. Subsequently, anti-HIV-1 conjugate labeled with horseradish peroxidase was added. The labeled antibody bound to the solid phase antibody/antigen complexes previously formed. Addition of the tetramethylbenzidine substrate results in blue color formation. The color turned yellow when the reaction is stopped. The plates were then analyzed on a plate reader set at 490 nm. The absorbance is a direct measurement of the amount of HIV-1 produced in each well and a decrease in color indicates decreased viral production. […] PBMC were obtained from HIV-1 negative donors by banding on Ficoll gradients, stimulated with phytohemaglutinin (PHAP) for 48 hours prior to infection with HIV-1, and infected with virus for 4 hours at 37° C. at a MOI of 0.001. […] Plates were incubated for 3 days at 37° C. The concentration of virus in each well was determined using the NEN p24 assay. Using the absorption values of the cell controls as 100% protection and drug free, virus infected cells as 0% protection, a dose response curve is generated by plotting percent protection on the Y axis and drug concentration on the X axis. From this curve, EC50 values were determined.
Compound dilutions and assay conditions were as described above.
MPA was also tested for activity against the xxLAI strain of HIV-1 in PBMCs using a p24 based Elisa assay. In this assay, cell supernatants are incubated on microelisa wells coated with antibodies to HIV-1 p24 core antigen. Subsequently, anti-HIV-1 conjugate labeled with horse radish peroxidase is added. The labeled antibody binds to the solid phase antibody/antigen complexes previously formed. Addition of the tetramethylbenzidine substrate results in blue color formation. The color turns yellow when the reaction is stopped. The plates are then analyzed on a plate reader set at 490 nm. The absorbance is a direct measurement of the amount of HIV-1 produced in each well and a decrease in color indicates decreased viral production. Dilutions of MPA were made in cell culture media in a 96 well plate, the highest concentration of MPA tested was 1 μM. PBMC were obtained from HIV-1 negative donors by banding on Ficoll gradients, stimulated with phytohemaglutinin (PHAP) for 48 hours prior to infection with HIV-1, and infected with virus for 4 hours at 37° C. at a MOI of 0.001. Infected cells were seeded into 96 well plates containing 4-fold serial dilutions of MPA. Plates were incubated for 3 days at 37° C. The concentration of virus in each well was determined using the NEN p24 assay. Using the absorption values of the cell controls as 100% protection and drug free, virus infected cells as 0% protection, a dose response curve is generated by plotting % protection on the Y axis and drug concentration on the X axis. From this curve EC50 values were determined.
Compound dilutions and assay conditions were as described above. The concentrations of MPA used were 1, 0.5, 0.25, 0.1, and 0.01 μM.

HCV = conditions: ribavirin alone; cited from earlier work
[5] = target: HIV reverse transcriptase (HIV-RT) (Human immunodeficiency virus type 1 group M subtype B, UniProt P04585); conditions: cited from earlier work
[6] = read-out: EC50, HIV-1 replication in PBMCs, compound alone, p24, 3 days

Structure (SMILES)	CC50 at 5 days [1]	CC50 at 5 days [2]	activity against HIV-1 in MT2 cells (xxLAI strain of HIV-1 [3])	EC50 (xxLAI strain of HIV-1 [4]; [6])	effect on serum levels of HCV-RNA (HCV)	patients with serum amino transferase levels reduced to normal (HCV)	EC50 (xxLAI strain of HIV-1 [4]; read-out: median EC50, HIV-1 replication in PBMCs, compound alone, p24, 3 days)	Ki [5]
NC(=O)c1ncn([C@@H]2O[C@H](CO)[C@@H](O)[C@H]2O)n1 [RBV, 1-β-D-ribofuranosyl-1,2,4-triazole-3-carboxamide]	> 1000 µM	> 1000 µM	not active	20500 nM	does not lower	40%		
COc1c(C)c2c(c(O)c1C/C=C(\C)CCC(=O)O)C(=O)OC2 [MPA, 6-(4-hydroxy-6-methoxy-7-methyl-3-oxo-5-phthalanyl)-4-methyl-4-hexanoic acid]	5.7 µM	4.5 µM	not active	95 nM			95 nM	
Nc1nc2c(ncn2C2COC(COP(=O)(O)OP(=O)(O)OP(=O)(O)O)O2)c(=O)[nH]1 (stereo not drawn) [DXG-TP]								19 nM
